Measurements as given in PMC4552634, “A New Set of Chemical Starting Points with Plasmodium falciparum Transmission-Blocking Potential for Antimalarial Drug Discovery” (PLoS ONE, 2015).
Where two headings read alike, the source gives them in different places.

Tests used:
[1] = system: P. falciparum asexual stages; settings: TCAMS data, cited from earlier work
[2] = system: luciferase reaction (BacTiter-Glo); experiment: Interference assay (inhibition of the BacTiter-Glo luciferase reaction); format: biochemical; design: concentration or dose not given beside the values; settings: ATP interference assay
Description: To discard possible false-positive results, we performed an interference assay in parallel. […] […]. The ATP solution was made by dissolving ATP powder (ATP standard from the ATPlite 1 step assay kit, reference 6016731, Perkin Elmer) in culture medium. The positive control used was the Luciferase Inhibitor I Calbiochem (Merck, 119113) at 100 μM.

[3] = system: P. falciparum stage V gametocytes; experiment: Gametocytocidal ATP bioluminescence assay (single point 5 μM and 1 μM, dose-response); format: cell-based, Plasmodium falciparum; settings: for Ratio IC50 HepG2/IC50 P. falciparum: IC50 HepG2 divided by IC50 P. falciparum gametocytes
Description: Purified stage IV-V gametocytes were obtained as previously described [10]. Single point ATP bioluminescence assay and dose–response of positive hits was determined in accordance with the previously published protocol [10].

HepG2 cells = experiment: Cytotoxicity in HepG2 cells (intracellular ATP, ATPlite, 48 h); format: cell-based, human; settings: IC50 HepG2 divided by IC50 P. falciparum gametocytes
[4] = as above; format: cell-based, human; settings: human, HepG2 cells
[5] = asexual stages, read-out: IC50 asexual
[6] = Plasmodium falciparum, P. falciparum gametocytes, average, read-out: IC50 Pf Gametocytes average, IC50 (µM) average
[7] = IC50 per ratio column head, unit inferred, read-out: Cytotoxicity in HepG2
[8] = sexual stages (gametocytes), dose-response, read-out: IC50 sexual
[9] = P. falciparum asexual stages, read-out: IC50 (µM) Pf asexual stages
[10] = Plasmodium falciparum, sexual stages (gametocytes), dose-response, read-out: IC50 sexual
[11] = HepG2, 48 h exposure, intracellular ATP, read-out: IC50 (μM) Cytotoxicity HepG2

SMILES | IC50 [1, 5] | % Control luminiscence [2] | Ratio IC50 HepG2/IC50 P. falciparum [3] | IC50 [3, 6] | Ratio IC50 HepG2/IC50 P. falciparum (HepG2 cells) | IC50 at 48 h [4, 7] | IC50 [3, 8] | IC50 [1, 9] | IC50 [3, 10] | IC50 at 48 h [4, 11] | %_Inh ([3]; gametocytes, primary screen at 5 μM (S10 Table, MCSI analogs))
c1cc(Nc2nc(-c3ccc(-c4csc(Nc5ccncc5)n4)cc3)cs2)ccn1 [TCMDC-139725] | 0.117 µM | 93% | 67 | 0.26 µM | 67 | 17.3 µM | – | – | – | – | –
O=[N+]([O-])c1ccc(C=NNc2nc(Nc3ccccc3)nc(Nc3ccccc3)n2)o1 [TCMDC-125802] | 0.837 µM | 100% | 11 | 1.31 µM | 11 | 14.8 µM | 1.31 µM | – | – | – | –
Cc1cc(Nc2ccncc2)n2nc(C)c(-c3ccc(Cl)cc3)c2n1 [TCMDC-124478] | 0.157 µM | 100% | >55 | 0.91 µM | >55 | > 50 µM | – | 0.16 µM | 0.913 µM | > 25 µM | –
Cc1cccc2nc(-c3ccc(-c4cccc(CNCCN5CCNCC5)c4)cc3)[nH]c12 [TCMDC-132867] | 1.23 µM | 100% | 16 | 0.84 µM | 16 | 13.4 µM | – | 1.23 µM | – | 13 µM | –
Cn1nc(C(F)(F)F)c(-c2ccc(Br)cc2)c1NC(=O)Cc1ccccc1F [TCMDC-123792] | 0.157 µM | 100% | >14 | 1.79 µM | >14 | > 25 µM | – | 0.16 µM | 1.79 µM | – | –
FC(F)(F)c1ccc2[nH]c(-c3cccc(-c4ccc(CNCCN5CCNCC5)cc4)c3)nc2c1 [TCMDC-132872] | 0.862 µM | 100% | 15 | 0.86 µM | 15 | 12.6 µM | – | 0.86 µM | – | 13 µM | –
c1cc(CNCCN2CCNCC2)cc(-c2cccc(-c3nc4ccccc4[nH]3)c2)c1 [TCMDC-132859] | 0.959 µM | 100% | 27 | 0.71 µM | 27 | 19.3 µM | – | 0.96 µM | – | 19 µM | –
Cc1ccc(C)c(CC(=O)N2CCC(n3c(C)nc4ccc(F)cc43)CC2)c1 [TCMDC-124790] | 0.193 µM | 100% | >27 | 0.92 µM | >27 | > 25 µM | – | 0.19 µM | 0.923 µM | – | –
CCn1ncc2c(NC3CCOCC3)c(CNC(=O)c3ccnn3C)c(C)nc21 [TCMDC-136560] | 0.533 µM | 100% | >15 | 1.64 µM | >15 | > 25 µM | – | 0.53 µM | 1.64 µM | – | –
COc1cc(NC(=O)c2sc(-c3ccc(Cl)cc3)cc2NC(=O)c2cccnc2)ccc1OCCN1CCCC1 [TCMDC-135397] | 0.38 µM | 100% | >41 | 0.61 µM | >41 | > 25 µM | 0.613 µM | – | – | – | –
COc1cc2nc(N3CCC(CCCC4CCNCC4)CC3)nc(NCc3ccccn3)c2cc1OC [TCMDC-138494] | 0.757 µM | 100% | 26 | 0.4 µM | 26 | 10.6 µM | – | – | – | – | –
COc1ccc(NC(=O)C2c3ccccc3C(=O)N(CC(C)C)C2c2cccs2)cc1OC (centres unmarked) [TCMDC-125289] | 0.203 µM | 100% | >58 | 0.43 µM | >58 | > 25 µM | – | 0.2 µM | 0.427 µM | – | –
c1ccc2sc(Sc3ncnc4sccc34)nc2c1 [TCMDC-125539] | 0.734 µM | 100% | >50 | 0.5 µM | >50 | > 25 µM | – | 0.73 µM | 0.497 µM | – | –
CCN(CC)CCCOC(=O)c1ccc2c(c1)-c1ccc(C(=O)OCCCN(CC)CC)c3cccc-2c13 [TCMDC-125491] | 0.933 µM | 96% | 140 | 0.14 µM | 140 | 20 µM | 0.143 µM | – | – | – | –
CC(C)CNCc1cccc(-c2ccc(CN(CCCN3CCN(C)CC3)C(=O)CCC3CCCC3)cc2)c1 [TCMDC-140558] | 0.877 µM | 100% | >36 | 0.7 µM | >36 | > 25 µM | – | – | – | – | –
Cc1ccc(-n2c(C)nc3c(Nc4ccc(-c5ccncc5)cc4)ncnc32)c(C)c1 [TCMDC-136289] | 0.101 µM | 100% | >47 | 0.53 µM | >47 | > 25 µM | 0.533 µM | – | – | – | –
CN(C)CCCNc1nccc(N(C)c2ccc(NC(=O)Nc3cc(C(F)(F)F)ccc3F)cc2)n1 [TCMDC-141633] | 0.98 µM | 100% | 17 | 1 µM | 17 | 17.3 µM | 0.997 µM | – | – | – | –
O=C(c1ccc([N+](=O)[O-])o1)N1CCC(Cc2ccc(C(F)(F)F)cc2)CC1 [TCMDC-124805] | 0.166 µM | 100% | 55 | 0.26 µM | 55 | 14.1 µM | – | 0.17 µM | 0.257 µM | 14 µM | –
CCN(CC)C(=NC(=N)Nc1ccc(Cl)cc1)NCCCCCCCCNC(=NC(=N)Nc1ccc(Cl)cc1)N(CC)CC [TCMDC-131812] | 0.403 µM | 100% | >24 | 1.03 µM | >24 | > 25 µM | – | – | – | – | –
C/C=C/C=C/C1=NCCc2cc(OCCC)ccc21 [TCMDC-137442] | 0.914 µM | 100% | 25 | 0.75 µM | 25 | 19 µM | – | 0.91 µM | 0.747 µM | – | –
Ic1cc(CNC2CCCCC2)ccc1OCc1cccc(COc2ccc(CNC3CCCCC3)cc2I)c1 [TCMDC-137261] | 0.829 µM | 100% | >75 | 0.33 µM | >75 | > 25 µM | 0.333 µM | – | – | – | –
COc1cc2nc(NCC3CCN(c4nc(N)c5cc(OC)c(OC)cc5n4)CC3)nc(N)c2cc1OC [TCMDC-138723] | 0.776 µM | 98% | >18 | 1.42 µM | >18 | > 25 µM | – | – | – | – | –
COc1ccc2nc3cc(Cl)ccc3c(NCCCCNc3c4ccc(Cl)cc4nc4ccc(OC)cc34)c2c1 [TCMDC-138218] | 0.16 µM | 100% | 72 | 0.2 µM | 72 | 14.5 µM | – | – | – | – | –
CN1CCN(CCCCNc2c3ccccc3nc3ccccc23)CC1 [TCMDC-137479] | 0.704 µM | 100% | 2.57 | 1.32 µM | – | 3.39 µM | 1.32 µM | – | – | – | –
Fc1ccc2[nH]c(-c3ccc(-c4ccc(CN5CCC(CCN6CCCCC6)CC5)cc4)cc3)nc2c1 [TCMDC-133924] | 0.129 µM | 100% | 12 | 0.46 µM | – | 5.3 µM | – | – | – | – | –
Cc1cccc2nc(-c3ccc(-c4cccc(CN5CCC(CCN6CCCCC6)CC5)c4)s3)[nH]c12.O=C(O)C(F)(F)F [TCMDC-133923] | 0.14 µM | 100% | 8 | 0.46 µM | – | 3.87 µM | – | – | 0.463 µM | – | 107.301%
CC[C@H]1CN2CCc3cc(OC)c(OC)cc3[C@@H]2C[C@@H]1C[C@H]1NCCc2cc(OC)c(OC)cc21 [TCMDC-125531] | 0.214 µM | 95% | – | 0.35 µM | – | 21 µM | – | 0.21 µM | 0.347 µM | 21 µM | –
[O-][s+]1c(Cl)c(-c2ccc(Cl)cc2)c2ccc(Cl)cc21 (centres unmarked) [TCMDC-124011] | 0.993 µM | 100% | – | 0.02 µM | – | 12.8 µM | – | – | – | – | –
COc1ccc2nc(-c3ccccc3)cc(NCCCNc3cc(-c4ccccc4)nc4ccc(OC)cc34)c2c1.Cl [TCMDC-137734] | 0.122 µM | 100% | 4.53 | 1.21 µM | – | 5.5 µM | 1.21 µM | – | – | – | –
